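Compound exposure: 48 hours, 5 concentrations, 96-well plates. GI50: concentration for 50% inhibition of growth. At the TGI there is no net growth.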
Tests used:
Experiment in all cases: NCI-60 cell line screen, 48 h
COLO 205 colon = system: COLO 205 colon
K-562 leukemia = system: K-562 leukemia
NCI-H23 lung = system: NCI-H23 lung
SF-295 CNS = system: SF-295 CNS
SN12C renal = system: SN12C renal
HT29 colon = system: HT29 colon
OVCAR-3 ovarian = system: OVCAR-3 ovarian
U251 CNS = system: U251 CNS
MCF7 breast = system: MCF7 breast
MDA-MB-231 breast = system: MDA-MB-231 breast

Compound	GI50 (COLO 205 colon) [µM]	TGI (COLO 205 colon) [µM]	GI50 (K-562 leukemia) [µM]	TGI (K-562 leukemia) [µM]	GI50 (NCI-H23 lung) [µM]	TGI (NCI-H23 lung) [µM]	GI50 (SF-295 CNS) [µM]	TGI (SF-295 CNS) [µM]	GI50 (SN12C renal) [µM]	TGI (SN12C renal) [µM]	TGI (HT29 colon) [µM]	TGI (OVCAR-3 ovarian) [µM]	TGI (U251 CNS) [µM]	GI50 (MCF7 breast) [µM]	TGI (MCF7 breast) [µM]	GI50 (MDA-MB-231 breast) [µM]	TGI (MDA-MB-231 breast) [µM]	GI50 (OVCAR-3 ovarian) [µM]	GI50 (U251 CNS) [µM]	GI50 (HT29 colon) [µM]
CCCCCCCC(=O)[O-].CCCCCCCC(=O)[O-].N.N.N.N.[Co+3].[O-][Cl+3]([O-])([O-])[O-]	> 100	> 100	> 100	> 100	> 100	> 100	> 100	> 100	> 100	> 100										
O=C(c1ccccc1)c1nnn(Cc2ccccc2Cn2nnc(C(=O)c3ccccc3)c2C(=O)c2ccccc2)c1C(=O)c1ccccc1		> 100		> 100		> 100		> 100		> 100	> 100	> 100	> 100							
O=c1c2ccccc2oc2ccccc12 (tested in a mixture with another compound)		> 100		> 100				53.3		60.8		> 100								
CN1CCN(Cc2ccc(NC(=O)c3[nH]ncc3Nc3ncnc4[nH]ccc34)cc2)CC1	0.193	0.427	0.265	> 100	0.295	1.08	0.211	5.01	0.333	> 100		0.797	10.7	0.118	29.1	0.371	0.941	0.255	0.251	
CC(C)N(C(=O)C12C3C4C5(C(=O)O)C(C1C35I)C42C(=O)O)C(C)C (stereo not drawn)		> 100		> 100		> 100		> 100		> 100	> 100	> 100	> 100							
CC(C)C1(NC(=O)C2CC3c4cccc5[nH]cc(c45)CC3N(C)C2)OC2(O)C3CCCN3C(=O)C(Cc3ccccc3)N2C1=O (stereo not drawn)		> 100				> 100		> 100		> 100	> 100	> 100	> 100		> 100		56.7			
Cc1ccccc1-n1c(=S)[nH]c2c(sc(=O)n2-c2ccccc2C)c1=O		> 100		> 100		> 100		> 100		> 100	> 100	> 100	> 100							
CCOC(=O)c1c(-c2ccccc2)[n+](=O)c2cc(F)c(F)cc2n1[O-]			0.702	> 100	1.42	3.13	2.08	3.84			3.27	2.61	2.71	2.76	10.5			1.23	1.25	1.51
O=c1cc[nH]cc1-c1c[nH]ccc1=O		> 100		> 100		> 100		> 100		> 100	> 100	> 100	> 100							
CCC(C)(O)c1cn(-c2ccc(Cl)cc2)nn1 (stereo not drawn)		> 100		> 100		> 100		> 100		> 100	> 100	> 100	> 100							
COc1cc(C2c3cc4c(cc3OC(O)C2C)OCO4)cc(OC)c1OC (stereo not drawn)				41.1				> 48.8		> 65		5.25	> 40.1		> 55.9		17.4			
COC(=O)C(=O)C(C(=O)C(=O)Nc1ccccc1[N+](=O)[O-])c1nc2ccc([N+](=O)[O-])cc2[nH]c1=O (stereo not drawn)		> 100		> 100		> 100		> 100		> 100	> 100		> 100							
CC(C)(C)c1ccc(C2CC(=O)C3=C(C2)Nc2ccccc2N(C(=O)c2ccccc2Cl)C3c2ccc(F)cc2)cc1 (stereo not drawn)	> 100	> 100			> 100	> 100	> 100	> 100	> 100	> 100		> 100	> 100	> 100	> 100	> 100	> 100	> 100	> 100	
CN1CCC(c2c(O)cc(O)c3c(=O)cc(-c4ccccc4Cl)oc23)C(O)C1 (stereo not drawn)		0.255	0.297	> 100		0.208				> 100	> 56.3	0.0223	> 100					< 0.01		
Brc1cc(C2OCCCO2)ccc1OCc1ccccc1		56.9		> 100		> 100		> 100		> 100	33.2	> 100								
CN1CCN=C1c1nnn(-c2ccc([N+](=O)[O-])cc2)c1-c1ccccc1		> 100		> 100		> 100		> 100		> 100	> 100	> 100	> 100							
CS(=O)(=O)c1ccc(COP(N)(=O)N(CCCl)CCCl)cc1 (stereo not drawn)		> 100		> 100		> 100		> 100		> 100	> 100	> 100	> 100							
C=C(C)[C@@H]1CCc2c(O)c(O)c(=O)cc(C)c2C1		15		> 27.6		48.9		> 100		> 100	> 100		> 100		20.7		> 100			
COc1cc(OC)c2c(=O)cc(-c3ccccc3OCc3ccccc3)oc2c1OC			> 100	> 100	5.94	23.4	4.65	26.8	20.4	> 100	> 100	16.5	> 100			5.6	71.8	4.15	9.59	28.9
CCOC(=O)[C@@]12C(C)=CC(=O)O[C@]1(C)C1C(=O)NC(=O)C12 (stereo partly drawn)		> 100		> 100		> 100		> 100			> 100	> 100	> 100							
CN(C)CCN1C(=O)c2cccc3c(/C=C/CN4C(=O)c5cccc6cccc(c56)C4=O)ccc(c23)C1=O	> 100	> 100			> 100	> 100	> 100	> 100	21.9	70.5	> 100	> 100	> 100	21.1	62.4	35.9	> 100	> 100	46.5	> 100

Reference: PubChem BioAssay (NCI)
